# Data taken from patent EP0148283A1, “Novel penicillanic acid derivatives” (F. HOFFMANN-LA ROCHE & CO. Aktiengesellschaft, priority 1983, dated 1985).
# Where a name gives a salt, the structure may show the parent alone. Read-outs that look alike come from different tables or passages of the source.
# Legend:
# Experiment in all cases: In vitro antibacterial activity, MIC by broth dilution in 96-well trays
# Assay type in all cases: cell-based
# S. pneumoniae = details: Streptococcus pneumoniae
# Procedure: (§1) The in vitro antibacterial activity of the following compounds:
# (§2) The diluted agents are dispensed in 100 µl amounts into the wells of a 96-well tray and used immediately or frozen at -10 to -70°C until needed. Using an automated inoculator, 1.5 µl of a 10^-2 dilution of an overnight culture is added to each well of the tray. The tops of the trays are then sealed using transparent tape and incubated overnight at 37°C. The trays are examined with the aid of a viewer. The lowest concentration at which no growth is observed is considered to be the minimum inhibitory concentration (MIC). [formula] [formula] [formula] [formula] [formula] [formula] [formula] [formula] [formula] [formula] [formula]
# S. aureus = details: Staphylococcus aureus
# Procedure: as §1, §2
# S. faecalis = details: Enterococcus faecalis; S. faecalis C1
# Procedure: as §1, §2
# P.aeruginosa = details: Pseudomonas aeruginosa
# Procedure: as §1, §2
# S. pyogenes = details: Streptococcus pyogenes
# Procedure: as §1, §2
# C. diversus = details: Citrobacter koseri; C. diversus strain CDC 1663-72
# Procedure: as §1, §2
# S. typhi P58A = details: Salmonella enterica
# Procedure: as §1, §2
# P. rettgeri = details: Providencia rettgeri, ATCC9250; P. rettgeri strain ATCC 9250
# Procedure: as §1, §2
# K. pneumoniae = details: Klebsiella pneumoniae
# Procedure: as §1, §2
# P. mirabilis = details: Proteus mirabilis
# Procedure: as §1, §2
# C. freundii = details: Citrobacter freundii
# Procedure: as §1, §2
# E. cloacae = details: Enterobacter cloacae
# Procedure: as §1, §2
# E. coli = details: Escherichia coli
# Procedure: as §1, §2
# E. aerogenes = details: Klebsiella aerogenes
# Procedure: as §1, §2
# P. vulgaris = details: Proteus vulgaris
# Procedure: as §1, §2
# S. marcescens = system: S. marcescens
# Procedure: as §1, §2
# S. schottmuelleri = system: S. schottmuelleri
# Procedure: as §1, §2
compound,measurement,setting,value
"CN(C)C=Nc1nccn1CCCC1CCN(C=N[C@@H]2C(=O)N3[C@@H]2SC(C)(C)[C@@H]3C(=O)O)CC1 [S, [2S-(2alpha,5alpha,6beta)]-6-[[[4-[3-[2-[[(dimethylamino)methylene]amino]-1H-imidazol-1-yl]propyl]-1-piperidinyl]methylene]amino]-3,3-dimethyl-7-oxo-4-thia-1-azabicyclo[3.2.0]heptane-2-carboxylic acid 1.7 molar hydrochloride 2.6 molar hydrate]",MIC,S. pneumoniae; S. pneumoniae strain 6301,2 µg/mL
same,MIC,S. pneumoniae; S. pneumoniae strain 6302,1 µg/mL
same,MIC,S. pneumoniae; S. pneumoniae strain SC,0.5 µg/mL
same,MIC,S. aureus; S. aureus strain 1059B,64 µg/mL
same,MIC,S. aureus; S. aureus strain Giorgio,8 µg/mL
same,MIC,S. aureus; S. aureus strain Smith,8 µg/mL
same,MIC,S. faecalis,128 µg/mL
same,MIC,P.aeruginosa; P.aeruginosa strain 503-56,> 128 µg/mL
same,MIC,P.aeruginosa; P.aeruginosa strain 503-820,> 128 µg/mL
same,MIC,P.aeruginosa; P.aeruginosa strain 5700,> 128 µg/mL
same,MIC,P.aeruginosa; P.aeruginosa strain 5712,> 128 µg/mL
same,MIC,P.aeruginosa; P.aeruginosa strain 6148B,> 128 µg/mL
same,MIC,P.aeruginosa; P.aeruginosa strain 8710,> 128 µg/mL
same,MIC,P.aeruginosa; P.aeruginosa strain 8780,> 128 µg/mL
same,MIC,P.aeruginosa; P.aeruginosa strain B,> 128 µg/mL
same,MIC,P.aeruginosa; P.aeruginosa strain POW 151,> 128 µg/mL
same,MIC,P.aeruginosa; P.aeruginosa strain Stone 130,> 128 µg/mL
same,MIC,S. pyogenes; S. pyogenes strain 4,0.25 µg/mL
same,MIC,S. pyogenes; S. pyogenes strain 503-782,128 µg/mL
"CC1(C)S[C@@H]2[C@H](N=CN3CCCC(c4ncc[nH]4)C3)C(=O)N2[C@H]1C(=O)O (stereo partly drawn) [P, [2S-(2alpha,5alpha,6beta)]-6-[[[3-(1H-imidazol-2-yl)-1-piperidinyl]methylene]amino]-3,3-dimethyl-7-oxo-4-thia-1-azabicyclo[3.2.0]heptane-2-car-boxylic acid hydrochloride]",MIC,S. pneumoniae; S. pneumoniae strain 6301,1 µg/mL
same,MIC,S. pneumoniae; S. pneumoniae strain 6302,1 µg/mL
same,MIC,S. pneumoniae; S. pneumoniae strain SC,1 µg/mL
same,MIC,S. aureus; S. aureus strain 1059B,64 µg/mL
same,MIC,S. aureus; S. aureus strain Giorgio,4 µg/mL
same,MIC,S. aureus; S. aureus strain Smith,2 µg/mL
same,MIC,S. faecalis,64 µg/mL
same,MIC,P.aeruginosa; P.aeruginosa strain 503-56,> 128 µg/mL
same,MIC,P.aeruginosa; P.aeruginosa strain 503-820,> 128 µg/mL
same,MIC,P.aeruginosa; P.aeruginosa strain 5700,8 µg/mL
same,MIC,P.aeruginosa; P.aeruginosa strain 5712,> 128 µg/mL
same,MIC,P.aeruginosa; P.aeruginosa strain 6148B,> 128 µg/mL
same,MIC,P.aeruginosa; P.aeruginosa strain 8710,> 128 µg/mL
same,MIC,P.aeruginosa; P.aeruginosa strain 8780,> 128 µg/mL
same,MIC,P.aeruginosa; P.aeruginosa strain B,8 µg/mL
same,MIC,P.aeruginosa; P.aeruginosa strain POW 151,> 128 µg/mL
same,MIC,P.aeruginosa; P.aeruginosa strain Stone 130,> 128 µg/mL
same,MIC,S. pyogenes; S. pyogenes strain 4,0.5 µg/mL
same,MIC,S. pyogenes; S. pyogenes strain 503-782,64 µg/mL
"CC1(C)S[C@@H]2[C@H](N=CN3CCC(CC4=NCCCN4)CC3)C(=O)N2[C@H]1C(=O)O [Compound U, [2S-(2alpha,5alpha,6beta)]-6-[[[4-[(1,4,5,6-tetrahydro-2-pyrimidinyl)methyl]-1-piperidinyl]-methylene]amino]-3,3-dimethyl-7-oxo-4-thia-1-azabicyclo[3.2.0]heptane-2-carboxylic acid hydrochloride]",MIC,S. pneumoniae; S. pneumoniae strain 6301,2 µg/mL
same,MIC,S. pneumoniae; S. pneumoniae strain 6302,4 µg/mL
same,MIC,S. pneumoniae; S. pneumoniae strain SC,4 µg/mL
same,MIC,S. aureus; S. aureus strain 1059B,> 128 µg/mL
same,MIC,S. aureus; S. aureus strain Giorgio,8 µg/mL
same,MIC,S. aureus; S. aureus strain Smith,8 µg/mL
same,MIC,S. faecalis,128 µg/mL
same,MIC,P.aeruginosa; P.aeruginosa strain 503-56,64 µg/mL
same,MIC,P.aeruginosa; P.aeruginosa strain 503-820,> 128 µg/mL
same,MIC,P.aeruginosa; P.aeruginosa strain 5700,0.5 µg/mL
same,MIC,P.aeruginosa; P.aeruginosa strain 5712,> 128 µg/mL
same,MIC,P.aeruginosa; P.aeruginosa strain 6148B,128 µg/mL
same,MIC,P.aeruginosa; P.aeruginosa strain 8710,> 128 µg/mL
same,MIC,P.aeruginosa; P.aeruginosa strain 8780,> 128 µg/mL
same,MIC,P.aeruginosa; P.aeruginosa strain B,9.5 µg/mL
same,MIC,P.aeruginosa; P.aeruginosa strain POW 151,> 128 µg/mL
same,MIC,P.aeruginosa; P.aeruginosa strain Stone 130,> 128 µg/mL
same,MIC,S. pyogenes; S. pyogenes strain 4,4 µg/mL
same,MIC,S. pyogenes; S. pyogenes strain 503-782,> 128 µg/mL
"CC1(C)S[C@@H]2[C@H](N=CN3CCC(Cc4ncc[nH]4)CC3)C(=O)N2[C@H]1C(=O)O [Q, [2S-(2alpha,5alpha,6beta)]-6-[[[4-(1H-imidazol-2-yl-methyl)-1-piperidinyl]methylene]amino]-3,3-dimethyl-7-oxo-4-thia-1-azabicyclo[3.2.0]heptane-2-carboxylic acid hydrochloride]",MIC,S. pneumoniae; S. pneumoniae strain 6301,1 µg/mL
same,MIC,S. pneumoniae; S. pneumoniae strain 6302,2 µg/mL
same,MIC,S. pneumoniae; S. pneumoniae strain SC,2 µg/mL
same,MIC,S. aureus; S. aureus strain 1059B,128 µg/mL
same,MIC,S. aureus; S. aureus strain Giorgio,8 µg/mL
same,MIC,S. aureus; S. aureus strain Smith,8 µg/mL
same,MIC,S. faecalis,128 µg/mL
same,MIC,P.aeruginosa; P.aeruginosa strain 503-56,64 µg/mL
same,MIC,P.aeruginosa; P.aeruginosa strain 503-820,128 µg/mL
same,MIC,P.aeruginosa; P.aeruginosa strain 5700,0.125 µg/mL
same,MIC,P.aeruginosa; P.aeruginosa strain 5712,> 128 µg/mL
same,MIC,P.aeruginosa; P.aeruginosa strain 6148B,128 µg/mL
same,MIC,P.aeruginosa; P.aeruginosa strain 8710,128 µg/mL
same,MIC,P.aeruginosa; P.aeruginosa strain 8780,> 128 µg/mL
same,MIC,P.aeruginosa; P.aeruginosa strain B,0.25 µg/mL
same,MIC,P.aeruginosa; P.aeruginosa strain POW 151,> 128 µg/mL
same,MIC,P.aeruginosa; P.aeruginosa strain Stone 130,> 128 µg/mL
same,MIC,S. pyogenes; S. pyogenes strain 4,1 µg/mL
same,MIC,S. pyogenes; S. pyogenes strain 503-782,128 µg/mL
"CC1(C)S[C@@H]2[C@H](N=CN3CCC(CCCn4ccnc4CO)CC3)C(=O)N2[C@H]1C(=O)O [R, [2S-(2alpha,5alpha,6beta)]-6-[[[4-[3-[2-(hydroxy-methyl)-1H-imidazol-1-yl]propyl-1-piperidinyl]-methylene]amino]-3,3-dimethyl-7-oxo-4-thia-1-azabicyclo[3.2.0]heptane-2-carboxylic acid hydrochloride 1.1 molar hydrate]",MIC,S. pneumoniae; S. pneumoniae strain 6301,1 µg/mL
same,MIC,S. pneumoniae; S. pneumoniae strain 6302,1 µg/mL
same,MIC,S. pneumoniae; S. pneumoniae strain SC,0.5 µg/mL
same,MIC,S. aureus; S. aureus strain 1059B,64 µg/mL
same,MIC,S. aureus; S. aureus strain Giorgio,8 µg/mL
same,MIC,S. aureus; S. aureus strain Smith,8 µg/mL
same,MIC,S. faecalis,128 µg/mL
same,MIC,P.aeruginosa; P.aeruginosa strain 503-56,> 128 µg/mL
same,MIC,P.aeruginosa; P.aeruginosa strain 503-820,128 µg/mL
same,MIC,P.aeruginosa; P.aeruginosa strain 5700,> 128 µg/mL
same,MIC,P.aeruginosa; P.aeruginosa strain 5712,> 128 µg/mL
same,MIC,P.aeruginosa; P.aeruginosa strain 6148B,128 µg/mL
same,MIC,P.aeruginosa; P.aeruginosa strain 8710,> 128 µg/mL
same,MIC,P.aeruginosa; P.aeruginosa strain 8780,> 128 µg/mL
same,MIC,P.aeruginosa; P.aeruginosa strain B,128 µg/mL
same,MIC,P.aeruginosa; P.aeruginosa strain POW 151,> 128 µg/mL
same,MIC,P.aeruginosa; P.aeruginosa strain Stone 130,> 128 µg/mL
same,MIC,S. pyogenes; S. pyogenes strain 4,0.5 µg/mL
same,MIC,S. pyogenes; S. pyogenes strain 503-782,128 µg/mL
CC1(C)S[C@@H]2[C@H](/N=C/N3CCCCCC3)C(=O)N2[C@H]1C(=O)O [Amdinocillin],MIC,C. diversus,0.062 µg/mL
same,MIC,S. typhi P58A,0.062 µg/mL
same,MIC,P. rettgeri,0.125 µg/mL
same,MIC,K. pneumoniae; K. pneumoniae strain 35,0.125 µg/mL
same,MIC,K. pneumoniae; K. pneumoniae strain 503-964,0.125 µg/mL
same,MIC,"K. pneumoniae; K. pneumoniae strain 503-994, read-out: MIC",0.062 µg/mL
same,MIC,"K. pneumoniae; K. pneumoniae strain 4964, read-out: MIC",64 µg/mL
same,MIC,K. pneumoniae; K. pneumoniae strain 5096,128 µg/mL
same,MIC,"K. pneumoniae; K. pneumoniae strain 8357, read-out: MIC",0.25 µg/mL
same,MIC,"K. pneumoniae; K. pneumoniae strain A, read-out: MIC",0.031 µg/mL
same,MIC,"K. pneumoniae; K. pneumoniae strain HE7, read-out: MIC",> 128 µg/mL
same,MIC,P. mirabilis,0.125 µg/mL
same,MIC,"P. mirabilis; P. mirabilis strain 2, read-out: MIC",0.25 µg/mL
same,MIC,"P. mirabilis; P. mirabilis strain 90, read-out: MIC",0.25 µg/mL
same,MIC,"P. mirabilis; P. mirabilis strain 503-1136, read-out: MIC",2 µg/mL
same,MIC,"P. mirabilis; P. mirabilis strain 620A, read-out: MIC",64 µg/mL
same,MIC,C. freundii; C. freundii strain CDC6,0.125 µg/mL
same,MIC,"C. freundii; C. freundii strain 8ASM, read-out: MIC",0.062 µg/mL
same,MIC,E. cloacae; E. cloacae strain 24,0.125 µg/mL
same,MIC,E. cloacae; E. cloacae strain 214,0.125 µg/mL
same,MIC,E. cloacae; E. cloacae strain 5699,0.25 µg/mL
same,MIC,E. cloacae; E. cloacae strain 6951,16 µg/mL
same,MIC,E. cloacae; E. cloacae strain 9295,0.25 µg/mL
same,MIC,E. cloacae; E. cloacae strain 9570A,0.125 µg/mL
same,MIC,E. cloacae; E. cloacae strain P99,0.062 µg/mL
same,MIC,E. coli; E. coli strain 4,0.062 µg/mL
same,MIC,E. coli; E. coli strain 48,0.062 µg/mL
same,MIC,E. coli; E. coli strain 257,0.125 µg/mL
same,MIC,E. coli; E. coli strain 387-1,0.031 µg/mL
same,MIC,E. coli; E. coli strain 503-455,2 µg/mL
same,MIC,E. coli; E. coli strain 5152,8 µg/mL
same,MIC,E. coli; E. coli strain R-563,0.125 µg/mL
same,MIC,E. aerogenes,128 µg/mL
same,MIC,"E. aerogenes; E. aerogenes strain 83, read-out: MIC",8 µg/mL
same,MIC,"E. aerogenes; E. aerogenes strain 503-478, read-out: MIC",4 µg/mL
same,MIC,"P. vulgaris; ATCC6380, P. vulgaris strain ATCC 6380",0.031 µg/mL
same,MIC,P. vulgaris; P. vulgaris strain 100,0.5 µg/mL
same,MIC,P. vulgaris; P. vulgaris strain 101,64 µg/mL
same,MIC,S. marcescens; S. marcescens strain S3,0.125 µg/mL
same,MIC,S. marcescens; S. marcescens strain S147,0.125 µg/mL
same,MIC,S. marcescens; Serratia marcescens,0.125 µg/mL
same,MIC,"S. marcescens; Serratia marcescens, S. marcescens strain 5805, read-out: MIC",1 µg/mL
same,MIC,"S. marcescens; Serratia marcescens, S. marcescens strain S1, read-out: MIC",0.25 µg/mL
same,MIC,"S. marcescens; Serratia marcescens, S. marcescens strain S2, read-out: MIC",0.25 µg/mL
same,MIC,"S. marcescens; Serratia marcescens, S. marcescens strain S4, read-out: MIC",1 µg/mL
same,MIC,"S. marcescens; Serratia marcescens, S. marcescens strain S5, read-out: MIC",1 µg/mL
same,MIC,"S. marcescens; Serratia marcescens, S. marcescens strain S714, read-out: MIC",0.5 µg/mL
same,MIC,S. schottmuelleri,0.062 µg/mL
